According to the supplement of paper PMC11451515:

Tests used:
Details in all cases: 48 h
NOMO1 [1] = assay: AUC of viability dose-response curve (% viability x log10 dose units); higher = less sensitive
Procedure, shortened: (§1)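 Leukemia cells adapted to each medium were seeded at 500 or 1000 cells/well in 1536-well plates and dosed with library compounds in DMSO at 11 threefold doses from 47 μM to 0.79 nM for 48 h at 37°C. CellTiter-Glo One luminescence was normalised per plate to DMSO and cell-free wells, then fitted with a four-parameter log-logistic model over log10 doses. Area under the curve was taken from this fit by the trapezoidal rule, with curves above full viability scaled and curves failing quality control removed.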

P12-Ichikawa [2] = assay: as above
Procedure, shortened: as §1

SEM cells [3] = assay: as above
Procedure, shortened: as §1

NOMO1 [4] = assay: cell viability relative to DMSO control; higher = less cytotoxic
Procedure, shortened: (§2)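 Library compounds in DMSO were pin-dosed into 1536-well plates (5 μl) holding NOMO1 or SEM (500 cells/well) or P12-Ichikawa (1000 cells/well) leukemia cells, across an 11-point threefold series of 47 μM to 0.79 nM. Each cell line had been adapted for at least four passages in each medium. CellTiter-Glo One luminescence was read after 48 h at 37°C. Viability is the per-plate percentage relative to DMSO wells, with cell-free wells as background.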

P12-Ichikawa [5] = assay: as above
Procedure, shortened: as §2

SEM cells [6] = assay: as above
Procedure, shortened: as §2

C[C@@H]1CN(CC(=O)N2CC(C)(C)c3ncc(Cc4ccc(F)cc4)cc32)[C@@H](CN2CCOC[C@H]2C)CN1
AUC of viability dose-response curve
Details	NOMO1 [1]	P12-Ichikawa [2]	SEM cells [3]
HPLM + 10% dialyzed FBS	442	463	448
RPMI 5 mM glucose + 10% FBS	456	449	402
RPMI 5 mM glucose + 10% dialyzed FBS	459	477	465

cell viability [%]
Details	NOMO1 [4]	P12-Ichikawa [5]	SEM cells [6]
HPLM + 10% dialyzed FBS, 0.000781 µM	100	102	83.8
HPLM + 10% dialyzed FBS, 0.00234 µM	117	113	105
HPLM + 10% dialyzed FBS, 0.00702 µM	145	81.8	48
HPLM + 10% dialyzed FBS, 0.0211 µM	112	113	115
HPLM + 10% dialyzed FBS, 0.0632 µM	129	118	105
HPLM + 10% dialyzed FBS, 0.19 µM	114	121	95.2
HPLM + 10% dialyzed FBS, 0.569 µM	112	111	113
HPLM + 10% dialyzed FBS, 1.71 µM	103	112	85
HPLM + 10% dialyzed FBS, 5.12 µM	109	115	105
HPLM + 10% dialyzed FBS, 15.4 µM	84	110	104
HPLM + 10% dialyzed FBS, 46.1 µM	46.4	91.8	73
RPMI 5 mM glucose + 10% FBS, 0.000781 µM	96.9	102	76.3
RPMI 5 mM glucose + 10% FBS, 0.00234 µM	120	106	96.3
RPMI 5 mM glucose + 10% FBS, 0.00702 µM	121	69.7	30.4
RPMI 5 mM glucose + 10% FBS, 0.0211 µM	111	118	104
RPMI 5 mM glucose + 10% FBS, 0.0632 µM	117	118	92.5
RPMI 5 mM glucose + 10% FBS, 0.19 µM	121	132	88.9
RPMI 5 mM glucose + 10% FBS, 0.569 µM	102	114	97.8
RPMI 5 mM glucose + 10% FBS, 1.71 µM	109	128	89.2
RPMI 5 mM glucose + 10% FBS, 5.12 µM	103	125	110
RPMI 5 mM glucose + 10% FBS, 15.4 µM	95.3	116	80.4
RPMI 5 mM glucose + 10% FBS, 46.1 µM	91.4	98.2	54.9
RPMI 5 mM glucose + 10% dialyzed FBS, 0.000781 µM	95.4	110	86.9
RPMI 5 mM glucose + 10% dialyzed FBS, 0.00234 µM	119	119	116
RPMI 5 mM glucose + 10% dialyzed FBS, 0.00702 µM	117	88.8	40.8
RPMI 5 mM glucose + 10% dialyzed FBS, 0.0211 µM	119	125	117
RPMI 5 mM glucose + 10% dialyzed FBS, 0.0632 µM	111	126	103
RPMI 5 mM glucose + 10% dialyzed FBS, 0.19 µM	114	135	114
RPMI 5 mM glucose + 10% dialyzed FBS, 0.569 µM	111	128	111
RPMI 5 mM glucose + 10% dialyzed FBS, 1.71 µM	106	122	104
RPMI 5 mM glucose + 10% dialyzed FBS, 5.12 µM	105	121	111
RPMI 5 mM glucose + 10% dialyzed FBS, 15.4 µM	98.2	118	94.5
RPMI 5 mM glucose + 10% dialyzed FBS, 46.1 µM	69.3	90.8	75.6
